Measurements: PMC9174720, “Evaluation of antioxidant and cytotoxic properties of phenolic N-acylhydrazones: structure–activity relationship” (Royal Society Open Science, 2022)
Like-named read-outs stand apart in the source and are kept apart here.

What was measured:
[1] = DPPH radical scavenging assay; format: biochemical; conditions: for IC50: DPPH 0.05 mM in methanol, incubated 20 and 60 min, absorbance at 517 nm, mean ± s.d. of three measurements, read-out: IC50 for inactivation of DPPH free radical; for stoichiometric factor (SF): SF=[DPPH]/(2×IC50), good antioxidant if SF ≥ 2
Method: The antioxidant screening of all PheNAHs was performed using the 2,2-diphenyl-1-picrylhydrazyl (DPPH) method. The solution of DPPH radical in methanol (0.05 mM, 1 ml) was mixed with the tested compound (20 µl of different concentrations in dimethyl sulfoxide (DMSO) and 980 µl of methanol). The reaction mixture was incubated in the dark at room temperature for 20 and 60 min after which the absorbance of the sample was measured spectrophotometrically at 517 nm. All measurements were performed in triplicate. Methanol was used as a control solution, whereas quercetin and nordihydroguaiaretic acid (NDGA) were used as reference compounds. […] IC50 is defined as the minimal concentration of tested compound required for reaching 50% of a maximum scavenging capacity. The results were presented as mean values ± standard deviation (s.d.) of three independent measurements. The stoichiometric factor (SF) was calculated for all compounds using the equation [45, 46]:1 SF=[DPPH]/(2×IC50)

HCT-116 = assay: MTT cytotoxicity assay on HCT-116 cells; format: cell-based, human; conditions: for IC50: Homo sapiens, HCT-116 cell line, read-out: Growth inhibitory effects IC50; for selectivity index (SI): ratio of IC50 values of MRC-5 and HCT-116, values greater than 1 indicate selectivity toward cancer cell line
Method: (§1) In this in vitro study, we investigated the influence of PheNAHs on two model systems: human colorectal carcinoma HCT-116 and human healthy fibroblast cell line MRC-5. Both cell lines of low passages were purchased from the European collection of authenticated cell cultures (ECACC) and were cultivated in Dulbecco's Modified Eagle Medium (DMEM) (Sigma, D5796) cell culture medium supplemented with 10% foetal bovine serum (Sigma, F4135-500 ML) and 1% penicillin/streptomycin (Sigma, P4333-100 ML) in 75 cm^2 culture flasks. The cells were maintained according to the standardized procedure in the incubator with humidified atmosphere supplemented with 5% CO2 at a physiological temperature of 37°C, and after a few passages and a confluence of about 80%, the cells were used in all in vitro experiments (Laboratory for Bioengineering protocol CB-003).
(§2) The ability of synthesized compounds to inhibit the growth of two different cell lines was estimated by a standardized 3-(4,5-dimethylthiazol-2-yl)-2,5-diphenyltetrazolium bromide (MTT) assay (Laboratory for Bioengineering protocol CB-005). The approximative number of 10 000 cells per well (in 96-well microplates) were seeded and kept in the incubator for 24 h to enable cell adhesion. After the incubation period, the cells were treated with investigated compounds in the concentration range from 0,1 to 500 µM dissolved in DMEM. Cytotoxic effect was evaluated 24 and 72 h from treatment by following the number of survived cells, thus the cell viability. MTT assay is based on spectrophotometric measurement of reduction rate of 3-(4,5-dimethylthiazol-2-yl)-2,5-diphenyltetrazolium bromide (MTT, Acros Organics, 158990010) to purple formazan crystals subsequently dissolved in DMSO (Fisher Chemical, D/4121/PB15) on a microplate reader (Rayto 2100C) at 550 nm. The percentage of the survived (viable) cells was estimated by dividing the absorbance of the treatment with the absorbance of the control (non-treated) cells and multiplied by 100 [47]. As positive controls, Leucovorin and Irinotecan were selected as compounds used in colon cancer treatment.
(§3) Biological activity was the result of two individual experiments, performed in triplicate for each dose. Statistical analyses were determined using the one-way analysis of variance (ANOVA) test for multiple comparisons, SPSS (Chicago, IL) statistical software package (SPSS for Windows, v. 17, 2008). The IC50 values were calculated from the dose curves by a computer program (CalcuSyn). IC50 values represent the half-maximal inhibitory concentration of tested compounds to measure the influence in inhibition of cell growth for 50%. […] At the beginning of the process of selecting the anti-cancer drug candidate, it is necessary to make a rough preselection between the tested substances. In vitro analysis on cancer and healthy cell lines is quantified in different ways, selectivity also. The selectivity index (SI) of tested drugs usually refers to the simple ratio of IC50 values determined for cancer and healthy cells. Also, the SI can be used for the expression of many other examples, such as SI between antibacterial and antiviral effect, discrimination of the drugs effect between many cancer cell lines, etc. In our experimentation, the values greater than ‘1’ indicate selectivity of the tested substance toward cancer cell line.

MRC-5 = assay: MTT cytotoxicity assay on MRC-5 cells; format: cell-based; conditions: Homo sapiens, MRC5, MRC-5 cell line, read-out: Growth inhibitory effects IC50
Method: as §1, §2, §3

SMILES	IC50 [1] [µM]	IC50 (HCT-116; 24 h exposure) [µM]	IC50 (HCT-116; 72 h exposure) [µM]	IC50 (MRC-5; 24 h exposure) [µM]	IC50 (MRC-5; 72 h exposure) [µM]	stoichiometric factor (SF) [1]	selectivity index (SI) (HCT-116; after 24 h exposure)	selectivity index (SI) (HCT-116; after 72 h exposure)	cytotoxic effect in words (from IC50 values) (HCT-116; MTT, 72 h after treatment)
O=C(N/N=C/c1ccccc1)c1ccccc1O [2a]	> 100	> 500	> 500	> 500	> 500				
COc1cc(/C=N/NC(=O)c2ccccc2)ccc1O [1e]	31.4 ± 0.9	> 500	> 500	> 500	> 500	0.4			
COc1cc(/C=N/NC(=O)c2ccc(O)c(OC)c2)ccc1O [4e]	22.1 ± 1.1	> 500	> 500	> 500	> 500	0.6			
O=C(N/N=C/c1ccccc1O)c1ccccc1O [2b]	> 100	26.9	70.5	> 500	233		>18.59	3.30	
COc1cc(/C=N/NC(=O)c2cc(O)c(O)c(O)c2)cc(OC)c1O [5f]	1.1 ± 0.1	86.9	43.6	84.3	40	11.4	0.97	0.92	
O=C(N/N=C/c1ccc(O)cc1O)c1ccccc1 [1g]	> 100	> 500	316	> 500	> 500				
COc1cc(C(=O)N/N=C/c2ccccc2O)ccc1O [4b]	> 100	250	91.4	> 500	290		>2.00	3.17	
COc1cc(/C=N/NC(=O)c2ccccc2O)ccc1O [2e]	20.1 ± 0.9	> 500	> 500	> 500	> 500	0.6			
COc1cc(/C=N/NC(=O)c2ccc(O)cc2)ccc1O [3e]	28.4 ± 0.2	> 500	> 500	> 500	> 500	0.4			
O=C(N/N=C/c1ccc(O)cc1)c1cc(O)c(O)c(O)c1 [5c]	2.9 ± 0.1	71.8	38.5	92	31.9	4.3	1.28	0.83	
O=C(N/N=C/c1ccccc1)c1ccccc1 [1a]	> 100	> 500	> 500	> 500	> 500				
COc1cccc(/C=N/NC(=O)c2cc(O)c(O)c(O)c2)c1O [5d]	1 ± 0.1	89.9	> 500	180	458	12.5	2.00	<0.92	
CCc1c2c(nc3ccc(OC(=O)N4CCC(N5CCCCC5)CC4)cc13)-c1cc3c(c(=O)n1C2)COC(=O)[C@]3(O)CC [irinotecan, Irinotecan, reference compound]		> 500	101	> 500	35.2			0.35	moderate
COc1cccc(/C=N/NC(=O)c2ccc(O)cc2)c1O [3d]	> 100	> 500	94.1	> 500	213			2.3	
